Several values for one entry are separate records, joined by “and”; a condition that tells them apart may be missing. Equal entries are not always repeated. Inconclusive results are not listed.
Test system: BDF1 mice, s.c. Lewis lung carcinoma, T/C %
Assay: NCI In Vivo Anticancer Drug Screen. Data for tumor model Lewis Lung Carcinoma (subcutaneous) in B6D2F1 (BDF1) mice
Description: The antitumor activity of compounds was measured in mice bearing transplantable tumors. Survival or tumor size were measured and the results are expressed as the measurement made in the treated group (T) divided by the measurement made in the vehicle treated control group (C). The tumor model used in this assay is Lewis Lung Carcinoma (subcutaneous) in B6D2F1 (BDF1) mice

[1] = endpoint: median survival time, dose: 0.25 mg/kg/injection, schedule: Q01DX009 (ip), vehicle: Klucel (hydroxypropylcellulose) (HPC), higher = longer survival
[2] = endpoint: median survival time, dose: 0.5 mg/kg/injection, schedule: Q01DX009 (ip), vehicle: Klucel (hydroxypropylcellulose) (HPC), higher = longer survival
[3] = endpoint: median survival time, dose: 1.0 mg/kg/injection, schedule: Q01DX009 (ip), vehicle: Klucel (hydroxypropylcellulose) (HPC), higher = longer survival

## O=C1C(=O)c2ccccc2C(O)=C1CC=C(Cl)Cl
endpoint: mean tumor weight, dose: 12.5 mg/kg/injection, schedule: Q01DX011 (ip), vehicle: carboxymethylcellulose (CMC), higher = larger tumour
  T/C: 88 % of control
endpoint: mean tumor weight, dose: 25.0 mg/kg/injection, schedule: Q01DX011 (ip), vehicle: carboxymethylcellulose (CMC), higher = larger tumour
  T/C: 76 % of control
endpoint: mean tumor weight, dose: 50.0 mg/kg/injection, schedule: Q01DX011 (ip), vehicle: carboxymethylcellulose (CMC), higher = larger tumour
  T/C: 90 % of control
endpoint: mean tumor weight, dose: 50.0 mg/kg/injection, schedule: Q01DX011 (oral), vehicle: carboxymethylcellulose (CMC), higher = larger tumour
  T/C: 84 % of control
endpoint: median survival time, dose: 12.5 mg/kg/injection, schedule: Q01DX009 (ip), vehicle: Klucel (hydroxypropylcellulose) (HPC), higher = longer survival
  T/C: 89 % of control and 100 % of control and 106 % of control
endpoint: median survival time, dose: 25.0 mg/kg/injection, schedule: Q01DX009 (ip), vehicle: Klucel (hydroxypropylcellulose) (HPC), higher = longer survival
  T/C: 86 % of control and 94 % of control and 110 % of control
endpoint: median survival time, dose: 34.0 mg/kg/injection, schedule: Q01DX009 (ip), vehicle: water, higher = longer survival
  T/C: 113 % of control
endpoint: median survival time, dose: 50.0 mg/kg/injection, schedule: Q01DX009 (ip), vehicle: Klucel (hydroxypropylcellulose) (HPC), higher = longer survival
  T/C: 103 % of control and 110 % of control
endpoint: median survival time, dose: 50.0 mg/kg/injection, schedule: Q01DX009 (ip), vehicle: water, higher = longer survival
  T/C: 110 % of control
endpoint: median survival time, dose: 100.0 mg/kg/injection, schedule: Q01DX009 (ip), vehicle: Klucel (hydroxypropylcellulose) (HPC), higher = longer survival
  T/C: 117 % of control
endpoint: median tumor weight (est.), dose: 12.5 mg/kg/injection, schedule: Q01DX009 (ip), vehicle: Klucel (hydroxypropylcellulose) (HPC), higher = larger tumour
  T/C: 93 % of control and 99 % of control
endpoint: median tumor weight (est.), dose: 25.0 mg/kg/injection, schedule: Q01DX009 (ip), vehicle: Klucel (hydroxypropylcellulose) (HPC), higher = larger tumour
  T/C: 78 % of control and 86 % of control
endpoint: median tumor weight (est.), dose: 50.0 mg/kg/injection, schedule: Q01DX009 (ip), vehicle: Klucel (hydroxypropylcellulose) (HPC), higher = larger tumour
  T/C: 87 % of control
endpoint: median tumor weight (est.), dose: 100.0 mg/kg/injection, schedule: Q01DX009 (ip), vehicle: Klucel (hydroxypropylcellulose) (HPC), higher = larger tumour
  T/C: 70 % of control

## Nc1cc2nc3ccccc3sc-2cc1=O
endpoint: median survival time, dose: 50.0 mg/kg/injection, schedule: Q01DX009 (ip), vehicle: saline with Tween-80, higher = longer survival
  T/C: 104 % of control
endpoint: median survival time, dose: 100.0 mg/kg/injection, schedule: Q01DX009 (ip), vehicle: saline with Tween-80, higher = longer survival
  T/C: 90 % of control

## COC(COC(N)=O)C1=C(N2CC2)C(=O)C(C)=C(N2CC2)C1=O (stereo not drawn)
endpoint: median survival time, dose: 0.03 mg/kg/injection, schedule: Q01DX009 (ip), vehicle: Klucel (hydroxypropylcellulose) (HPC), higher = longer survival
  T/C: 96 % of control
endpoint: median survival time, dose: 0.12 mg/kg/injection, schedule: Q01DX009 (ip), vehicle: Klucel (hydroxypropylcellulose) (HPC), higher = longer survival
  T/C: 103 % of control
[1]
  T/C: 107 % of control
[2]
  T/C: 119 % of control
[3]
  T/C: 93 % of control

## C[C@]12CCC(=O)C=C1CC[C@@H]1[C@@H]2[C@@H](O)C[C@@]2(C)[C@H]1CC[C@]2(O)C(=O)CO
endpoint: median survival time, dose: 40.0 mg/kg/injection, schedule: Q02DX009 (ip), vehicle: Klucel (hydroxypropylcellulose) (HPC), higher = longer survival
  T/C: 98 % of control
endpoint: median survival time, dose: 80.0 mg/kg/injection, schedule: Q02DX009 (ip), vehicle: Klucel (hydroxypropylcellulose) (HPC), higher = longer survival
  T/C: 96 % of control
endpoint: median survival time, dose: 160.0 mg/kg/injection, schedule: Q02DX009 (ip), vehicle: Klucel (hydroxypropylcellulose) (HPC), higher = longer survival
  T/C: 97 % of control
endpoint: median survival time, dose: 640.0 mg/kg/injection, schedule: Q02DX009 (ip), vehicle: Klucel (hydroxypropylcellulose) (HPC), higher = longer survival
  T/C: 88 % of control

## O=C(CCBr)N1CCN(C(=O)CCBr)CC1
endpoint: median survival time, dose: 2.5 mg/kg/injection, schedule: Q01DX009 (ip), vehicle: saline with Tween-80, higher = longer survival
  T/C: 105 % of control
endpoint: median survival time, dose: 5.0 mg/kg/injection, schedule: Q01DX009 (ip), vehicle: saline with Tween-80, higher = longer survival
  T/C: 105 % of control
endpoint: median survival time, dose: 10.0 mg/kg/injection, schedule: Q01DX009 (ip), vehicle: saline with Tween-80, higher = longer survival
  T/C: 109 % of control
endpoint: median survival time, dose: 20.0 mg/kg/injection, schedule: Q01DX009 (ip), vehicle: saline with Tween-80, higher = longer survival
  T/C: 109 % of control
endpoint: median survival time, dose: 40.0 mg/kg/injection, schedule: Q01DX009 (ip), vehicle: saline with Tween-80, higher = longer survival
  T/C: 106 % of control
endpoint: median survival time, dose: 80.0 mg/kg/injection, schedule: Q01DX009 (ip), vehicle: saline with Tween-80, higher = longer survival
  T/C: 102 % of control

## COC1N(C2CC(O)C(CO)O2)C(=O)NC(=O)C1(F)Br (stereo not drawn)
endpoint: mean tumor weight, dose: 8.8 mg/kg/injection, schedule: Q01DX011 (ip), vehicle: saline, higher = larger tumour
  T/C: 45 % of control and 51 % of control and 55 % of control
endpoint: mean tumor weight, dose: 13.3 mg/kg/injection, schedule: Q01DX011 (ip), vehicle: saline, higher = larger tumour
  T/C: 36 % of control and 56 % of control and 57 % of control
endpoint: mean tumor weight, dose: 20.0 mg/kg/injection, schedule: Q01DX011 (ip), vehicle: saline, higher = larger tumour
  T/C: 13 % of control and 22 % of control
endpoint: median survival time, dose: 1.56 mg/kg/injection, schedule: Q01DX009 (ip), vehicle: saline, higher = longer survival
  T/C: 110 % of control and 117 % of control
endpoint: median survival time, dose: 3.12 mg/kg/injection, schedule: Q01DX009 (ip), vehicle: saline, higher = longer survival
  T/C: 110 % of control
endpoint: median survival time, dose: 3.13 mg/kg/injection, schedule: Q01DX009 (ip), vehicle: saline, higher = longer survival
  T/C: 113 % of control
endpoint: median survival time, dose: 6.25 mg/kg/injection, schedule: Q01DX009 (ip), vehicle: saline, higher = longer survival
  T/C: 109 % of control and 277 % of control
endpoint: median survival time, dose: 12.5 mg/kg/injection, schedule: Q01DX009 (ip), vehicle: saline, higher = longer survival
  T/C: 279 % of control

## Cc1ccccc1Cc1ccccc1
endpoint: mean tumor weight, dose: 78.0 mg/kg/injection, schedule: Q01DX011 (ip), vehicle: saline, higher = larger tumour
  T/C: 121 % of control
endpoint: mean tumor weight, dose: 117.0 mg/kg/injection, schedule: Q01DX011 (ip), vehicle: saline, higher = larger tumour
  T/C: 111 % of control
endpoint: mean tumor weight, dose: 175.0 mg/kg/injection, schedule: Q01DX011 (ip), vehicle: saline, higher = larger tumour
  T/C: 85 % of control
endpoint: mean tumor weight, dose: 263.0 mg/kg/injection, schedule: Q01DX011 (ip), vehicle: saline, higher = larger tumour
  T/C: 103 % of control

## CC(CCc1cccc2ccccc12)(C(=O)O)C(=O)O
endpoint: mean tumor weight, dose: 50.0 mg/kg/injection, schedule: Q01DX011 (ip), vehicle: acid diluted with saline, higher = larger tumour
  T/C: 72 % of control
endpoint: mean tumor weight, dose: 63.0 mg/kg/injection, schedule: Q01DX011 (ip), vehicle: carboxymethylcellulose (CMC), higher = larger tumour
  T/C: 101 % of control
endpoint: mean tumor weight, dose: 100.0 mg/kg/injection, schedule: Q01DX011 (ip), vehicle: acid diluted with saline, higher = larger tumour
  T/C: 85 % of control
endpoint: mean tumor weight, dose: 200.0 mg/kg/injection, schedule: Q01DX011 (ip), vehicle: acid diluted with saline, higher = larger tumour
  T/C: 91 % of control
endpoint: mean tumor weight, dose: 400.0 mg/kg/injection, schedule: Q01DX011 (ip), vehicle: acid diluted with saline, higher = larger tumour
  T/C: 59 % of control

## CCOC(=O)C1CCC(NC(=O)N(CCCl)N=O)CC1 (stereo not drawn)
endpoint: median survival time, dose: 8.6 mg/kg/injection, schedule: Q04DX004 (ip), vehicle: gum acacia, higher = longer survival
  T/C: 155 % of control
endpoint: median survival time, dose: 13.0 mg/kg/injection, schedule: Q04DX004 (ip), vehicle: gum acacia, higher = longer survival
  T/C: 155 % of control and 168 % of control and 204 % of control
endpoint: median survival time, dose: 15.0 mg/kg/injection, schedule: Q07DX002 (ip), vehicle: gum acacia, higher = longer survival
  T/C: 413 % of control
endpoint: median survival time, dose: 18.0 mg/kg/injection, schedule: Q04DX004 (ip), vehicle: gum acacia, higher = longer survival
  T/C: 176 % of control and 252 % of control
endpoint: median survival time, dose: 20.0 mg/kg/injection, schedule: Q04DX004 (ip), vehicle: gum acacia, higher = longer survival
  T/C: 181 % of control
endpoint: median survival time, dose: 21.0 mg/kg/injection, schedule: Q07DX002 (ip), vehicle: gum acacia, higher = longer survival
  T/C: 413 % of control
endpoint: median survival time, dose: 22.0 mg/kg/injection, schedule: Q07DX002 (ip), vehicle: gum acacia, higher = longer survival
  T/C: 191 % of control
endpoint: median survival time, dose: 24.0 mg/kg/injection, schedule: Q07DX002 (ip), vehicle: gum acacia, higher = longer survival
  T/C: 232 % of control and 245 % of control
endpoint: median survival time, dose: 28.0 mg/kg/injection, schedule: Q07DX002 (ip), vehicle: gum acacia, higher = longer survival
  T/C: 184 % of control
endpoint: median survival time, dose: 30.0 mg/kg/injection, schedule: Q01DX001 (ip), vehicle: gum acacia, higher = longer survival
  T/C: 157 % of control and 166 % of control and 187 % of control
endpoint: median survival time, dose: 30.0 mg/kg/injection, schedule: Q04DX004 (ip), vehicle: gum acacia, higher = longer survival
  T/C: 70 % of control
endpoint: median survival time, dose: 33.0 mg/kg/injection, schedule: Q07DX002 (ip), vehicle: gum acacia, higher = longer survival
  T/C: 88 % of control and 90 % of control
endpoint: median tumor weight (est.), dose: 15.0 mg/kg/injection, schedule: Q01DX001 (ip), vehicle: gum acacia, higher = larger tumour
  T/C: 16 % of control
endpoint: median tumor weight (est.), dose: 29.0 mg/kg/injection, schedule: Q01DX001 (ip), vehicle: gum acacia, higher = larger tumour
  T/C: 8 % of control

## CC[C@H]1CN2CCc3cc(OC)c(OC)cc3[C@@H]2C[C@@H]1C[C@H]1NCCc2c1[nH]c1ccc(O)cc21
[1]
  T/C: 103 % of control
[2]
  T/C: 93 % of control
[3]
  T/C: 90 % of control

## C=C(CC(=O)O)C(=O)O (tested in a mixture with another compound)
endpoint: median survival time, dose: 3.12 mg/kg/injection, schedule: Q01DX009 (ip), vehicle: other, higher = longer survival
  T/C: 94 % of control
endpoint: median survival time, dose: 6.25 mg/kg/injection, schedule: Q01DX009 (ip), vehicle: other, higher = longer survival
  T/C: 101 % of control
endpoint: median survival time, dose: 12.5 mg/kg/injection, schedule: Q01DX009 (ip), vehicle: other, higher = longer survival
  T/C: 103 % of control
endpoint: median survival time, dose: 25.0 mg/kg/injection, schedule: Q01DX009 (ip), vehicle: other, higher = longer survival
  T/C: 88 % of control

## CC1OC(O[C@@H]2C=C3CC[C@@H]4[C@H](CC[C@]5(C)[C@@H](c6ccc(=O)oc6)CC[C@]45O)[C@@]3(C)CC2)C(O)C(O)C1O (stereo partly drawn)
endpoint: mean tumor weight, dose: 1.25 mg/kg/injection, schedule: Q01DX011 (ip), vehicle: saline, higher = larger tumour
  T/C: 114 % of control
endpoint: mean tumor weight, dose: 2.5 mg/kg/injection, schedule: Q01DX011 (ip), vehicle: saline, higher = larger tumour
  T/C: 90 % of control
endpoint: mean tumor weight, dose: 5.0 mg/kg/injection, schedule: Q01DX011 (ip), vehicle: saline, higher = larger tumour
  T/C: 64 % of control
endpoint: mean tumor weight, dose: 10.0 mg/kg/injection, schedule: Q01DX011 (ip), vehicle: saline, higher = larger tumour
  T/C: 83 % of control

— PubChem BioAssay AID270 (DTP/NCI, 2004)
